Data published in publication PMC4847728 (ACS chemical biology, 2015).
In brackets after ≈: the same amount, converted by molar mass.

What was measured:
[1] = test system: Enterococcus faecium ATCC 12952 (VRE); assay: MIC, liquid microdilution, VRE; type: cell-based; details: 18 h, 37 °C
[2] = test system: Staphylococcus aureus ATCC 10537 (MRSA); assay: MIC, liquid microdilution, MRSA; type: cell-based; details: 18 h, 37 °C
Bacillus sp. ATCC 27859 = assay: MIC, liquid microdilution, Bacillus; type: cell-based; details: 18 h, 37 °C
[3] = test system: in vitro protein synthesis (E. coli S30 Extract System); assay: In vitro transcription-translation coupled assay; type: biochemical; details: read-out: IC50, in vitro translation inhibition, pBESTLuc template, 37 °C, 1 h, triplicate

Structure (SMILES): C=C(NC(=O)C(=C)NC(=O)c1csc(C2=N[C@@H]3c4csc(n4)[C@H]4NC(=O)c5csc(n5)[C@H]([C@](C)(O)[C@@H](C)O)NC(=O)[C@H]5CSC(=N5)/C(=C/C)NC(=O)[C@H]([C@@H](C)O)NC(=O)c5csc(n5)[C@]3(CC2)NC(=O)[C@H](C)NC(=O)C(=C)NC(=O)[C@H](C)NC(=O)[C@H]([C@@H](C)CC)N[C@@H]2C=Cc3c([C@H](C)O)cc(nc3[C@H]2O)C(=O)O[C@@H]4C)n1)C(N)=O [Thiostrepton A, thiostrepton A]
- MIC VRE [1]: 0.012 µg/mL (≈ 7.21 nM)
- MIC MRSA [2]: 0.012 µg/mL (≈ 7.21 nM)
- MIC Bacillus (Bacillus sp. ATCC 27859): 0.025 µg/mL (≈ 15 nM)
- IC50 [3]: 630 ± 10 nM
